From ChEMBL document CHEMBL1201862, “PubChem BioAssay data set” (2004) come the findings set out here.

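Briefly, cells in 96-well plates were exposed to five compound concentrations for 48 h, and endpoints were estimated by linear interpolation. At the GI50, growth is halved.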 Active and inactive are the calls of the source. No stated cut-off is given here; in the data, active = GI50 up to about 1.1 µM and inactive = higher. Some results are limits rather than exact numbers.

Some test systems named below: CAKI-1; HCC 2998; HCT-116; HCT-15; HOP-62; IGROV-1; K562; KM12; MOLT-4; NCI-H522; OVCAR-3; OVCAR-4; OVCAR-5; SF-295; SF-539; SK-MEL-28; SK-OV-3; SNB-75; TK-10; UO-31.
Common to all, as to experiment: NCI anticancer screen, dose series, 48 h

On to `CC(=O)c1ccc(NC(=O)/C(CC(=O)/C=C/c2ccccc2)=N/NC(N)=S)cc1`, for which the GI50 was > 100 µM (inactive) in the assay with CAKI-1; > 100 µM (inactive) in the assay with HCC 2998; > 100 µM (inactive) with HCT-116; 60.5 µM with HCT-15; > 100 µM (inactive) in the assay with HOP-62; 53.1 µM (inactive) in the assay with IGROV-1. Also, the GI50 with K562 is 75.3 µM (inactive); in the assay with KM12, 44.4 µM (inactive); in the assay with MOLT-4, 46.5 µM (inactive); in the assay with NCI-H522, 33.3 µM (inactive); in the assay with OVCAR-3, > 100 µM (inactive); in the assay on OVCAR-4, 49.5 µM (inactive). In addition, the GI50 in the assay with OVCAR-5, in the assay with SF-295, in the assay with SF-539, with SK-MEL-28, with SK-OV-3 and in the assay on SNB-75 was > 100 µM (inactive) in each case. Besides, the GI50 was > 100 µM (inactive) in the assay on TK-10 and 41.1 µM (inactive) in the assay on UO-31.
Consider `O=C(C1=C(C(=O)c2ccccc2)SC2(S1)C(C(=O)c1ccccc1)=C(C(=O)c1ccccc1)Sc1c2ssc1=O)c1ccccc1`, for which the GI50 in the assay on CAKI-1 is > 100 µM (inactive); with HCC 2998, 55.8 µM (inactive); in the assay with HCT-116 it was 82.4 µM (inactive); with HCT-15 it was 64.9 µM; in the assay with HOP-62 it was > 100 µM (inactive); in the assay with IGROV-1, > 100 µM (inactive). The GI50 is 30.4 µM (inactive) in the assay with K562; 29.8 µM (inactive) with KM12; 1.11 µM (active) in the assay on MOLT-4; 26.7 µM (inactive) in the assay with NCI-H522; 67.6 µM (inactive) in the assay on OVCAR-3; 36.7 µM (inactive) with OVCAR-4. Besides, the GI50 in the assay with OVCAR-5 was 26.8 µM (inactive); in the assay with SF-295, 33.5 µM (inactive); in the assay on SF-539, 24.4 µM (inactive); in the assay on SK-MEL-28 it was > 100 µM (inactive); in the assay with SK-OV-3, 49.3 µM (inactive); in the assay on SNB-75, 36.7 µM (inactive). Also, the GI50 in the assay with TK-10 was 70.1 µM (inactive); in the assay with UO-31, 22.4 µM (inactive).
For `Cc1c2ccncc2c(C)c2c1[nH]c1ccc(OCCN(C)C)cc12`, the GI50 was 0.463 µM (active) in the assay with CAKI-1; 0.22 µM (active) with HCC 2998; 0.0455 µM (active) with HCT-116; 0.123 µM with HCT-15; 0.671 µM (active) in the assay with HOP-62; 0.388 µM (active) in the assay on IGROV-1. Besides, the GI50 was 0.0614 µM (active) in the assay with K562; 0.105 µM (active) with KM12; 0.0193 µM (active) in the assay with MOLT-4; 0.391 µM (active) in the assay with NCI-H522; 0.333 µM (active) in the assay on OVCAR-3; 0.135 µM (active) with OVCAR-4. Moreover, the GI50 in the assay on OVCAR-5 was 0.433 µM (active); in the assay with SF-295 it was 0.125 µM (active); in the assay on SF-539 it was 0.832 µM (active); with SK-MEL-28 it was 0.577 µM (active); in the assay on SK-OV-3, 0.501 µM (active); with SNB-75, 0.47 µM (active). The GI50 in the assay with UO-31 was 0.641 µM (active).
In the case of `COc1cc(C(=O)CC2OC(=O)C(Cl)=C2Cl)ccc1Cl` (centres undefined), the GI50 was > 100 µM (inactive) with CAKI-1; > 100 µM (inactive) in the assay with HCC 2998; > 100 µM (inactive) in the assay with HCT-116; more than 100 µM with HCT-15; > 100 µM (inactive) in the assay with HOP-62; > 100 µM (inactive) in the assay on IGROV-1. For the same compound, the GI50 in the assay on K562, in the assay on KM12, in the assay with MOLT-4, in the assay on NCI-H522, in the assay on OVCAR-3 and in the assay with OVCAR-4 was > 100 µM (inactive) each time. The GI50 in the assay on OVCAR-5, in the assay with SF-295, with SF-539, in the assay with SK-MEL-28, with SK-OV-3 and with SNB-75 was > 100 µM (inactive) each time. Also, the GI50 in the assay with TK-10 and with UO-31 was > 100 µM (inactive) in each case.
Regarding `N#CC1(C#N)C(c2ccccc2)NC23CCCCC2C1(C#N)C(=O)N3` (centres undefined), the GI50 in the assay with CAKI-1 is > 100 µM (inactive); with HCC 2998, > 100 µM (inactive); with HCT-116, > 100 µM (inactive); in the assay with HCT-15 it was more than 100 µM; in the assay on HOP-62 it was > 100 µM (inactive); with IGROV-1, > 100 µM (inactive). Further, the GI50 in the assay with K562, in the assay on KM12, with MOLT-4, in the assay with NCI-H522, in the assay with OVCAR-3 and in the assay on OVCAR-4 was > 100 µM (inactive) in each case. In addition, the GI50 with OVCAR-5, in the assay on SF-295, in the assay on SF-539, with SK-MEL-28, with SK-OV-3 and in the assay on SNB-75 was > 100 µM (inactive) throughout. In the assay with UO-31, the GI50 was > 100 µM (inactive).
Turning to `CC(C)OP(=O)(OC(C)C)/C(F)=N/Nc1ccc([N+](=O)[O-])cc1`, the GI50 with CAKI-1 is > 100 µM (inactive); with HCC 2998, > 100 µM (inactive); with HCT-116, > 100 µM (inactive); in the assay with HCT-15, more than 100 µM; in the assay with HOP-62 it was > 100 µM (inactive); in the assay on IGROV-1 it was > 100 µM (inactive). For the same compound, the GI50 was > 100 µM (inactive) in the assay on K562; 91.2 µM (inactive) in the assay with KM12; > 100 µM (inactive) with MOLT-4; > 100 µM (inactive) in the assay on NCI-H522; > 100 µM (inactive) in the assay with OVCAR-3; > 100 µM (inactive) in the assay on OVCAR-4. In addition, the GI50 with OVCAR-5 is > 100 µM (inactive); in the assay on SF-295 it was > 100 µM (inactive); in the assay with SF-539, > 100 µM (inactive); in the assay on SK-MEL-28 it was > 100 µM (inactive); with SK-OV-3, > 100 µM (inactive); in the assay on SNB-75, 38.7 µM (inactive). The GI50 with TK-10 and in the assay with UO-31 was > 100 µM (inactive) each time.
Turning to `COC1(O)c2cccc(Cl)c2C(=O)N1C1(C(N)=O)CCCCC1` (centres undefined), the GI50 is > 100 µM (inactive) in the assay on CAKI-1; > 100 µM (inactive) in the assay on HCC 2998; > 100 µM (inactive) in the assay on HCT-116; more than 100 µM in the assay with HCT-15; > 100 µM (inactive) in the assay with HOP-62; > 100 µM (inactive) in the assay on IGROV-1. Besides, the GI50 with K562, in the assay with KM12, in the assay with MOLT-4, in the assay on NCI-H522, in the assay on OVCAR-3 and in the assay with OVCAR-4 was > 100 µM (inactive) each time. Moreover, the GI50 in the assay with OVCAR-5, with SF-295, in the assay on SF-539, in the assay with SK-MEL-28, with SK-OV-3 and with SNB-75 was > 100 µM (inactive) throughout. For the same compound, in the assay on UO-31, the GI50 is > 100 µM (inactive).
For the compound `COC1=CC(=O)OC(/C=C(C)/C=C/C2=C(C)CCCC2(C)C)C1` (centres undefined), the GI50 with CAKI-1, in the assay with HCC 2998, in the assay on HCT-116, in the assay with HOP-62, in the assay on IGROV-1 and in the assay with K562 was > 100 µM (inactive) in each case. Moreover, the GI50 with KM12, with MOLT-4, in the assay on NCI-H522, with OVCAR-3, with OVCAR-4 and with OVCAR-5 was > 100 µM (inactive) each time. Besides, the GI50 in the assay on SF-295, in the assay on SF-539, in the assay on SK-MEL-28, in the assay on SK-OV-3, in the assay with SNB-75 and in the assay with TK-10 was > 100 µM (inactive) each time. The GI50 in the assay with UO-31 was > 100 µM (inactive).
On to `N#CC(C#N)=C1CCC2C(=C(C#N)C#N)CCC12` (centres undefined), for which the GI50 in the assay on CAKI-1 is > 100 µM (inactive); with HCC 2998, > 100 µM (inactive); with HCT-116, > 100 µM (inactive); in the assay on HCT-15, more than 100 µM; in the assay on HOP-62 it was > 100 µM (inactive); with IGROV-1, > 100 µM (inactive). Besides, the GI50 with K562, in the assay on KM12, in the assay with MOLT-4, with NCI-H522, in the assay on OVCAR-3 and in the assay on OVCAR-4 was > 100 µM (inactive) in each case. The GI50 in the assay with OVCAR-5, in the assay on SF-295, with SF-539, with SK-OV-3, with SNB-75 and with TK-10 was > 100 µM (inactive) each time. Further, the GI50 with UO-31 was > 100 µM (inactive).
For the compound `O=C(Nc1nccs1)c1c(O)nc2sccn2c1=O`, the GI50 in the assay with CAKI-1 is > 10 µM (inactive); in the assay with HCC 2998, > 10 µM (inactive); in the assay on HCT-116, > 10 µM (inactive); in the assay on HCT-15, more than 10 µM; in the assay on HOP-62 it was > 10 µM (inactive); in the assay on IGROV-1 it was > 10 µM (inactive). For the same compound, the GI50 with KM12, with MOLT-4, in the assay on NCI-H522, in the assay with OVCAR-3, in the assay with OVCAR-4 and in the assay on OVCAR-5 was > 10 µM (inactive) each time. Further, the GI50 with SF-295, with SF-539, in the assay on SK-MEL-28, in the assay on SK-OV-3, in the assay on SNB-75 and in the assay with TK-10 was > 10 µM (inactive) in each case. In the assay with UO-31, the GI50 is 6.55 µM (inactive).
